Reference: patent US8637537B2, “Serine/threonine kinase inhibitors” (Genentech, Inc., priority 2011, dated 2014)
Where two headings read alike, the source gives them in different places.

Target: T1, human recombinant GST-PAK1-KD protein (Homo sapiens, UniProt Q13153)
T1 construct: residues #249-545 of human PAK1, UniProtKP/Swiss Q13153; His6 (N); made in house; host or cells: Sf9 insect cells, pAcGP67 baculovirus expression vector
Experiment: GST-PAK1-KD (kinase domain) biochemical assay, microfluidic mobility shift

[1] = Table II, PAK1 Ki class, read-out: Ki

T1 sequence (Q13153 249-545): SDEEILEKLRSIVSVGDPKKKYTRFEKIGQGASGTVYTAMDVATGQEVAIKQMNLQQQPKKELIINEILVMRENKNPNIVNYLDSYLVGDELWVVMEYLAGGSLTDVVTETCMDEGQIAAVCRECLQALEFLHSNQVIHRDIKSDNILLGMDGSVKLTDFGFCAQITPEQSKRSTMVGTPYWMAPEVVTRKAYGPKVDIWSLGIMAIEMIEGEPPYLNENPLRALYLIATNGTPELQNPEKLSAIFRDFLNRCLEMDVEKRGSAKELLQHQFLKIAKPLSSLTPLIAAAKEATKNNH

Row | Structure (SMILES) | Ki [1] [µM] | Ki (GST-PAK1-KD Inhibition Assay - Example 65, read-out: PAK1 inhibition Ki) [µM]
1 | CN(Cc1ccc2[nH]cnc2c1Cl)c1ncc(F)c(Nc2cc(C(F)(F)F)[nH]n2)n1 [II-39, N^2-((4-Chloro-1H-benzo[d]imidazol-5-yl)methyl)-5-fluoro-N^4-(5-(trifluoromethyl)-1H-pyrazol-3-yl)-N2-methylpyrimidine-2,4-diamine] | 0.05 to 0.25 | –
2 | C[C@H](Nc1nccc(Nc2cc(C3CC3)[nH]n2)n1)c1cc(F)cc2c1cnn2C [II-40, (S)-N^4-(5-cyclopropyl-1H-pyrazol-3-yl)-N^2-(1-(6-fluoro-1-methyl-1H-indazol-4-yl)ethyl)pyrimidine-2,4-diamine] | 0.05 to 0.25 | –
3 | C[C@H](Nc1nccc(Nc2cc(C3CC3)[nH]n2)n1)c1cccc2[nH]cnc12 [II-41, (S)-N^2-(1-(1H-benzo[d]imidazol-4-yl)ethyl)-N^4-(5-cyclopropyl-1H-pyrazol-3-yl)pyrimidine-2,4-diamine] | 0.05 to 0.25 | –
4 | CN(Cc1ccc2[nH]cnc2c1Cl)c1ncc(F)c(Nc2cc(C(C)(C)C)[nH]n2)n1 [II-42, N^4-(5-tert-Butyl-1H-pyrazol-3-yl)-N^2-((4-chloro-1H-benzo[d]imidazol-5-yl)methyl)-5-fluoro-N^2-methylpyrimidine-2,4-diamine] | 0.05 to 0.25 | –
5 | Clc1c(CNc2nccc(Nc3cc(COC4CCC4)[nH]n3)n2)ccc2[nH]cnc12 [II-43, N^2-((4-Chloro-1H-benzo[d]imidazol-5-yl)methyl)-N^4-(5-(cyclobutoxymethyl)-1H-pyrazol-3-yl)pyrimidine-2,4-diamine] | 0.05 to 0.25 | 0.284
6 | Clc1cc(CNc2nccc(Nc3cc(C4CC4)[nH]n3)n2)c2nc[nH]c2c1 [II-44, N^2-((6-Chloro-1H-benzo[d]imidazol-4-yl)methyl)-N^4-(5-cyclopropyl-1H-pyrazol-3-yl)-pyrimidine-2,4-diamine] | < 0.05 | –
7 | Cc1cc(Nc2ccnc(NCc3ccc4[nH]cnc4c3Cl)n2)n[nH]1 [II-46, N^2-((4-Chloro-1H-benzo[d]imidazol-5-yl)methyl)-N^4-(5-methyl-1H-pyrazol-3-yl)pyrimidine-2,4-diamine] | 0.05 to 0.25 | –
8 | CNCCN(Cc1cc(F)cc2[nH]ncc12)c1nccc(Nc2cc(C3CC3)[nH]n2)n1 [II-47, N^4-(5-cyclopropyl-1H-pyrazol-3-yl)-N^2-((6-fluoro-1H-indazol-4-yl)methyl)-N^2-(2-(methylamino)ethyl)pyrimidine-2,4-diamine] | < 0.05 | –
9 | CN(C)CCCN(Cc1cc(F)cc2[nH]ncc12)c1nccc(Nc2cc(C3CC3)[nH]n2)n1 [II-48, N^4-(5-cyclopropyl-1H-pyrazol-3-yl)-N^2-(3-(dimethylamino)propyl)-N^2-((6-fluoro-1H-indazol-4-yl)methyl)pyrimidine-2,4-diamine] | < 0.05 | –
10 | CN(Cc1ccc2[nH]cnc2c1Cl)c1nccc(Nc2cc([C@@H]3C[C@H]3F)[nH]n2)n1 [II-49, N^2-((4-chloro-1H-benzo[d]imidazol-5-yl)methyl)-N^4-(5-((1S,2R)-2-fluorocyclopropyl)-1H-pyrazol-3-yl)-N^2-methylpyrimidine-2,4-diamine] | < 0.05 | –
11 | Clc1cc(CNc2nccc(Nc3cc(C4CC4)[nH]n3)n2)c2cn[nH]c2c1 [II-50, N^2-((6-chloro-1H-indazol-4-yl)methyl)-N^4-(5-cyclopropyl-1H-pyrazol-3-yl)pyrimidine-2,4-diamine] | < 0.05 | –
12 | Fc1cc(CNc2nccc(Nc3cc(C4CC4)[nH]n3)n2)c2cn[nH]c2c1 [II-52, N^4-(5-cyclopropyl-1H-pyrazol-3-yl)-N^2-((6-fluoro-1H-indazol-4-yl)methyl)pyrimidine-2,4-diamine] | < 0.05 | –
13 | C[C@H](Nc1nccc(Nc2cc(C3CC3)[nH]n2)n1)c1cc(F)cc2[nH]ncc12 [II-53, (S)-N^4-(5-cyclopropyl-1H-pyrazol-3-yl)-N^2-(1-(6-fluoro-1H-indazol-4-yl)ethyl)pyrimidine-2,4-diamine] | < 0.05 | –
14 | CN(Cc1ccc2[nH]cnc2c1Cl)c1nccc(Nc2cc([C@H]3CC3(F)F)[nH]n2)n1 [II-54, (R)-N^2-((4-chloro-1H-benzo[d]imidazol-5-yl)methyl)-N^4-(5-(2,2-difluorocyclopropyl)-1H-pyrazol-3-yl)-N^2-methylpyrimidine-2,4-diamine] | < 0.05 | –
15 | CN(Cc1ccc2[nH]cnc2c1Cl)c1nccc(Nc2cc(C3(F)CC3)[nH]n2)n1 [II-55, N^2-((4-chloro-1H-benzo[d]imidazol-5-yl)methyl)-N^4-(5-(1-fluorocyclorpropyl)-1H-pyrazol-3-yl)-N^2-methylpyrimidine-2,4-diamine] | < 0.05 | –
16 | Fc1cnc(NCc2cc(Cl)cc3[nH]ncc23)nc1Nc1cc(C2CC2)[nH]n1 [II-57, N^2-((6-chloro-1H-indazol-4-yl)methyl)-N^4-(5-cyclopropyl-1H-pyrazol-3-yl)-5-fluoropyrimidine-2,4-diamine] | < 0.05 | –
17 | CN(Cc1cc(F)cc2[nH]ncc12)c1nccc(Nc2cc(C3CC3)[nH]n2)n1 [II-58, N^4-(5-cyclopropyl-1H-pyrazol-3-yl)-N^2-((6-fluoro-1H-indazol-4-yl)methyl)-N^2-methylpyrimidine-2,4-diamine] | < 0.05 | –

Second part, led by results:

Row | Ki [1] [µM] | Structure (SMILES) | Ki (GST-PAK1-KD Inhibition Assay - Example 65, read-out: PAK1 inhibition Ki) [µM]
18 | < 0.05 | Fc1cc(CNc2nccc(Nc3cc([C@H]4C[C@@H]4F)[nH]n3)n2)c2cn[nH]c2c1 [II-60, N^2-((6-fluoro-1H-indazol-4-yl)methyl)-N^4-(5-((1R,2S)-2-fluorocyclopropyl)-1H-pyrazol-3-yl)pyrimidine-2,4-diamine] | –
19 | < 0.05 | C[C@H](Nc1nccc(Nc2cc(C3CC3)[nH]n2)n1)c1c(F)ccc2[nH]ncc12 [II-61, (S)-N^4-(5-cyclopropyl-1H-pyrazol-3-yl)-N^2-(1-(5-fluoro-1H-indazol-4-yl)ethyl)pyrimidine-2,4-diamine] | –
20 | < 0.05 | C[C@H](CN(Cc1cc(F)cc2[nH]ncc12)c1nccc(Nc2cc(C3CC3)[nH]n2)n1)N(C)C [II-62, (R)-N^4-(5-cyclopropyl-1H-pyrazol-3-yl)-N^2-(2-(dimethylamino)propyl)-N^2-((6-fluoro-1H-indazol-4-yl)methyl)pyrimidine-2,4-diamine] | –
21 | < 0.05 | CC(C)N(Cc1cc(F)cc2[nH]ncc12)c1nccc(Nc2cc(C3CC3)[nH]n2)n1 [II-63, N^4-(5-cyclopropyl-1H-pyrazol-3-yl)-N^2-((6-fluoro-1H-indazol-4-yl)methyl)-N^2-isopropylpyrimidine-2,4-diamine] | –
22 | < 0.05 | Fc1cc(CNc2nccc(Nc3cc([C@@H]4C[C@H]4F)[nH]n3)n2)c2cn[nH]c2c1 [II-64, N^2-((6-fluoro-1H-indazol-4-yl)methyl)-N^4-(5-((1S,2R)-2-fluorocyclopropyl)-1H-pyrazol-3-yl)pyrimidine-2,4-diamine] | –
23 | < 0.05 | Fc1cc(CNc2nccc(Nc3cc([C@@H]4CC4(F)F)[nH]n3)n2)c2cn[nH]c2c1 [II-65, (S)-N^4-(5-(2,2-difluorocyclopropyl)-1H-pyrazol-3-yl)-N^2-((6-fluoro-1H-indazol-4-yl)methyl)pyrimidine-2,4-diamine] | –
24 | < 0.05 | OCCN(Cc1cc(F)cc2[nH]ncc12)c1nccc(Nc2cc(C3CC3)[nH]n2)n1 [II-66, 2-((4-((5-cyclopropyl-1H-pyrazol-3-yl)amino)pyrimidin-2-yl)((6-fluoro-1H-indazol-4-yl)methyl)anino)ethanol] | –
25 | < 0.05 | C[C@@H](O)CN(Cc1cc(F)cc2[nH]ncc12)c1nccc(Nc2cc(C3CC3)[nH]n2)n1 [II-67, (R)-1-((4-((5-cyclopropyl-1H-pyrazol-3-yl)amino)pyrimidin-2-yl)((6-fluoro-1H-indazol-4-yl)methyl)amino)propan-2-ol] | –
